In ChEMBL document CHEMBL1201862, “PubChem BioAssay data set” (2004):
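Interpolation was linear, between the two tested concentrations surrounding the appropriate level; five concentrations were tested over 48 hours in 96-well plates. At the GI50, growth is halved.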 Calls of active or inactive are those of the source. Cut-off read from the data, not from the text of the source: active = GI50 up to about 1.1 µM and inactive = higher.

Experiments:
Experiment in all cases: DTP human tumour cell line panel, 48 h
A498 = test system: A498
A549 = test system: A549
DMS-273 = test system: DMS-273
HL-60 = test system: HL-60
HT-29 = test system: HT-29
KM12 = test system: KM12
LOX IMVI = test system: LOX IMVI
NCI-H226 = test system: NCI-H226
OVCAR-3 = test system: OVCAR-3
OVCAR-8 = test system: OVCAR-8
SF-268 = test system: SF-268
SK-OV-3 = test system: SK-OV-3
SNB-19 = test system: SNB-19
SNB-75 = test system: SNB-75
SW-620 = test system: SW-620
UO-31 = test system: UO-31

| Compound | GI50 (A498) | GI50 (A549) | GI50 (DMS-273) | GI50 (HL-60) | GI50 (HT-29) | GI50 (KM12) | GI50 (LOX IMVI) | GI50 (NCI-H226) | GI50 (OVCAR-3) | GI50 (OVCAR-8) | GI50 (SF-268) | GI50 (SK-OV-3) | GI50 (SNB-19) | GI50 (SNB-75) | GI50 (SW-620) | GI50 (UO-31) |
| --- | --- | --- | --- | --- | --- | --- | --- | --- | --- | --- | --- | --- | --- | --- | --- | --- |
| Nc1ncnc2c(C3OC(CO)C(O)C3O)scc12 (stereo not given) | 0.0316 µM (active) | 0.00721 µM (active) | 0.00377 µM (active) | < 0.001 µM (active) | 0.00458 µM (active) | < 0.001 µM (active) | 0.0566 µM (active) | 0.0386 µM (active) | 0.00241 µM (active) | 0.00179 µM (active) | 1.77 µM (inactive) | < 0.001 µM (active) | 1.38 µM (inactive) | 0.459 µM (active) | 0.0192 µM (active) | 0.57 µM (active) |
| Cc1c(C2Cc3ccccc3N2C(=O)/C=C\C(=O)O)c2ccccc2n1C (stereo not given) | 18 µM (inactive) | 33 µM (inactive) | 34.8 µM (inactive) | 18.1 µM (inactive) | 35.3 µM (inactive) | 18.4 µM (inactive) | 16.9 µM (inactive) | 20.2 µM (inactive) | 17.5 µM (inactive) | 18.5 µM (inactive) | 18.7 µM (inactive) | 23.4 µM (inactive) | 17.4 µM (inactive) | 21.8 µM (inactive) | 20 µM (inactive) | 20.4 µM (inactive) |
| CCOC(=O)c1nc2ccc([N+](=O)[O-])cc2c2c1CCO2 | > 100 µM (inactive) | > 100 µM (inactive) | > 100 µM (inactive) | > 100 µM (inactive) | > 100 µM (inactive) | > 100 µM (inactive) | > 100 µM (inactive) | > 100 µM (inactive) | > 100 µM (inactive) | > 100 µM (inactive) | > 100 µM (inactive) | > 100 µM (inactive) | > 100 µM (inactive) | 41.3 µM (inactive) | > 100 µM (inactive) |  |
| O=C1OC(c2ccccc2)=N/C1=C\c1c(O)cc(O)cc1O | > 100 µM (inactive) | > 100 µM (inactive) | 94.2 µM (inactive) |  | > 100 µM (inactive) | > 100 µM (inactive) | 78.3 µM (inactive) |  | > 100 µM (inactive) | > 100 µM (inactive) | 99.5 µM (inactive) | > 100 µM (inactive) | > 100 µM (inactive) | > 100 µM (inactive) | > 100 µM (inactive) | > 100 µM (inactive) |
| O=[N+]([O-])c1ccc2nc(/C(=N\Nc3ccccc3)C(O)c3ccc4c(c3)OCO4)c(O)nc2c1 (stereo not given) |  | > 100 µM (inactive) | 37.7 µM (inactive) | 52.1 µM (inactive) | 97.1 µM (inactive) | 41.6 µM (inactive) | > 100 µM (inactive) | > 100 µM (inactive) | > 100 µM (inactive) | > 100 µM (inactive) | > 100 µM (inactive) | > 100 µM (inactive) | > 100 µM (inactive) | 60 µM (inactive) | 56.1 µM (inactive) | 79.3 µM (inactive) |
| N#C/N=C(\N)NCCO | > 100 µM (inactive) | > 100 µM (inactive) | > 100 µM (inactive) | > 100 µM (inactive) | > 100 µM (inactive) | > 100 µM (inactive) |  | > 100 µM (inactive) | > 100 µM (inactive) | > 100 µM (inactive) | > 100 µM (inactive) | > 100 µM (inactive) | > 100 µM (inactive) | > 100 µM (inactive) | 18.3 µM (inactive) | > 100 µM (inactive) |
| C/N=c1\ss/c(=N\C(=S)N(C)C)n1C1CCCCC1 | > 31.6 µM (inactive) | > 31.6 µM (inactive) | > 31.6 µM (inactive) | > 100 µM (inactive) | > 31.6 µM (inactive) | > 31.6 µM (inactive) | > 31.6 µM (inactive) | > 31.6 µM (inactive) | > 31.6 µM (inactive) | > 31.6 µM (inactive) | > 31.6 µM (inactive) | 24.2 µM (inactive) | > 31.6 µM (inactive) | > 10 µM (inactive) | > 31.6 µM (inactive) | > 31.6 µM (inactive) |
| Oc1cc(Cl)ncn1 | > 100 µM (inactive) | > 100 µM (inactive) | > 100 µM (inactive) | > 100 µM (inactive) | > 100 µM (inactive) | > 100 µM (inactive) | > 100 µM (inactive) | > 100 µM (inactive) | > 100 µM (inactive) | > 100 µM (inactive) | > 100 µM (inactive) | > 100 µM (inactive) | > 100 µM (inactive) | > 100 µM (inactive) | > 100 µM (inactive) | > 100 µM (inactive) |
| Cc1c(C(=O)CC(=O)C(=O)NC2C3CC4CC(C3)CC2C4)[n+]([O-])c2ccccc2[n+]1[O-] (stereo not given) | > 100 µM (inactive) | > 100 µM (inactive) | > 100 µM (inactive) | > 100 µM (inactive) | > 100 µM (inactive) | > 100 µM (inactive) | > 100 µM (inactive) | > 100 µM (inactive) | 24 µM (inactive) | > 100 µM (inactive) | > 100 µM (inactive) | > 100 µM (inactive) | > 100 µM (inactive) | > 100 µM (inactive) | > 100 µM (inactive) | > 100 µM (inactive) |
| CNC(=O)CN1CC(=O)N(C)C(=O)C1 |  |  | > 100 µM (inactive) | > 100 µM (inactive) |  | > 100 µM (inactive) | > 100 µM (inactive) | > 100 µM (inactive) | > 100 µM (inactive) |  |  | > 100 µM (inactive) | > 100 µM (inactive) | > 100 µM (inactive) | > 100 µM (inactive) | > 100 µM (inactive) |
| CCOC(=O)c1cnc2sc3ccc4ccccc4c3n2c1=O |  | 53.3 µM (inactive) | 95.5 µM (inactive) | 21.2 µM (inactive) | 87.5 µM (inactive) | 68.4 µM (inactive) | 47.9 µM (inactive) | 30.1 µM (inactive) | 82.2 µM (inactive) | 48.6 µM (inactive) | 92.7 µM (inactive) | 78.5 µM (inactive) | > 100 µM (inactive) | > 100 µM (inactive) | > 100 µM (inactive) | 23.9 µM (inactive) |
| CC(C)CCS(=O)(=O)OCCCCOS(=O)(=O)CCC(C)C |  | > 100 µM (inactive) | > 100 µM (inactive) | > 100 µM (inactive) | > 100 µM (inactive) | > 100 µM (inactive) | > 100 µM (inactive) | > 100 µM (inactive) | 16.4 µM (inactive) | > 100 µM (inactive) | > 100 µM (inactive) | > 100 µM (inactive) | > 100 µM (inactive) | > 100 µM (inactive) | > 100 µM (inactive) | > 100 µM (inactive) |
| COc1ccc(Oc2ccccc2N)cc1 | > 100 µM (inactive) | 38.1 µM (inactive) | 29.5 µM (inactive) | 21 µM (inactive) | 39.9 µM (inactive) | 20.9 µM (inactive) | 81.1 µM (inactive) | 41.9 µM (inactive) | 26.4 µM (inactive) | 56.2 µM (inactive) | 42.1 µM (inactive) | > 100 µM (inactive) |  | 23.7 µM (inactive) | 59 µM (inactive) | 26.5 µM (inactive) |
| NNC(=O)/C(NC(=O)c1ccccc1)=C(\N)c1ccc(Cl)cc1 | 80.5 µM (inactive) | > 100 µM (inactive) | > 100 µM (inactive) | > 100 µM (inactive) | > 100 µM (inactive) | > 100 µM (inactive) | > 100 µM (inactive) | > 100 µM (inactive) | > 100 µM (inactive) | > 100 µM (inactive) | > 100 µM (inactive) | > 100 µM (inactive) | > 100 µM (inactive) | > 100 µM (inactive) | > 100 µM (inactive) | > 100 µM (inactive) |
| CC1CN1c1c(C(=O)/C=C/c2ccc(F)cc2)c(-c2ccccc2)nn(C)c1=O (stereo not given) | > 10 µM (inactive) | 18.3 µM (inactive) | > 10 µM (inactive) | 13.4 µM (inactive) | 16.9 µM (inactive) | 15.7 µM (inactive) | 13.7 µM (inactive) | 11.9 µM (inactive) | 15.4 µM (inactive) | 14.2 µM (inactive) | 16.3 µM (inactive) | > 10 µM (inactive) | 16 µM (inactive) | 14.3 µM (inactive) | 17.9 µM (inactive) | 12.9 µM (inactive) |
| c1ccc(C2=NOC3(c4ccccc4)SC4CCCCC4CN23)cc1 (stereo not given) | 35.5 µM (inactive) | 20.5 µM (inactive) | 32.6 µM (inactive) | 5.4 µM (inactive) | 28.2 µM (inactive) | 25.5 µM (inactive) | 17 µM (inactive) | 36.6 µM (inactive) | 39.4 µM (inactive) |  | 22.8 µM (inactive) | 77.4 µM (inactive) | 62.4 µM (inactive) | 18.2 µM (inactive) | 30.6 µM (inactive) | 27.5 µM (inactive) |
| COc1ccc2c(c1)[n+]([O-])c(-c1ccc(C)cc1)c(N)[n+]2[O-] | > 100 µM (inactive) | 55.3 µM (inactive) | 37.7 µM (inactive) | 43.9 µM (inactive) | 52.5 µM (inactive) | 44.8 µM (inactive) |  | > 100 µM (inactive) | 31 µM (inactive) | 66.2 µM (inactive) |  | > 100 µM (inactive) | > 100 µM (inactive) | 45.1 µM (inactive) | 38.4 µM (inactive) | 55.1 µM (inactive) |
| N#CC1(C#N)C(c2ccc(C3C(C#N)(C#N)C3(C#N)C#N)cc2)C1(C#N)C#N |  | > 100 µM (inactive) | > 100 µM (inactive) | > 100 µM (inactive) | > 100 µM (inactive) | > 100 µM (inactive) | > 100 µM (inactive) |  | > 100 µM (inactive) | > 100 µM (inactive) | > 100 µM (inactive) | > 100 µM (inactive) | > 100 µM (inactive) | > 100 µM (inactive) | > 100 µM (inactive) | > 100 µM (inactive) |
